Measured values as given in ChEMBL document CHEMBL5725720, “Pyrazolopyridines and pyrazolopyrimidines” (2016).

Experiments:
[1] = target: Tyrosine-protein kinase JAK1 (Homo sapiens, UniProt P23458); test: (§1) JAK Caliper Enzyme Assay at 1 mM ATP: Test article was solubilized in dimethyl sulfoxide (DMSO) to a stock concentration of 30 mM. An 11-point half log dilution series was created in DMSO with a top concentration of 600 μM. […] The compound plates were diluted 1 to 60 resulting in a top final assay compound concentration of 10 μM and a 2% DMSO concentration.Test article and assay controls were added to a 384-well plate. Reaction mixtures contained 20 mM HEPES, pH 7.4, 10 mM magnesium chloride, 0.01% bovine serum albumin (BSA), 0.0005% Tween 20, 1 mM ATP and 1 μM peptide substrate. The JAK1 and TYK2 assays contained 1 μM of the IRStide peptide (5FAM-[…]) and the JAK2 and JAK3 assays contained 1 μM of the JAKtide peptide (FITC-[…]). […] Enzyme concentrations and incubation times were optimized for each new enzyme preps and were modified slightly over time to ensure 20%-30% phosphorylation. The assays were stopped with a final concentration of 10 mM EDTA, 0.1% Coating Reagent and 100 mM HEPES, pH=7.4. The assay plates were placed on a Caliper Life Science Lab Chip 3000 (LC3000) instrument, and each well was sampled using appropriate separation conditions to measure the unphosphorylated and phosphorylated peptide.
Sequence of Tyrosine-protein kinase JAK1 (P23458 whole entry): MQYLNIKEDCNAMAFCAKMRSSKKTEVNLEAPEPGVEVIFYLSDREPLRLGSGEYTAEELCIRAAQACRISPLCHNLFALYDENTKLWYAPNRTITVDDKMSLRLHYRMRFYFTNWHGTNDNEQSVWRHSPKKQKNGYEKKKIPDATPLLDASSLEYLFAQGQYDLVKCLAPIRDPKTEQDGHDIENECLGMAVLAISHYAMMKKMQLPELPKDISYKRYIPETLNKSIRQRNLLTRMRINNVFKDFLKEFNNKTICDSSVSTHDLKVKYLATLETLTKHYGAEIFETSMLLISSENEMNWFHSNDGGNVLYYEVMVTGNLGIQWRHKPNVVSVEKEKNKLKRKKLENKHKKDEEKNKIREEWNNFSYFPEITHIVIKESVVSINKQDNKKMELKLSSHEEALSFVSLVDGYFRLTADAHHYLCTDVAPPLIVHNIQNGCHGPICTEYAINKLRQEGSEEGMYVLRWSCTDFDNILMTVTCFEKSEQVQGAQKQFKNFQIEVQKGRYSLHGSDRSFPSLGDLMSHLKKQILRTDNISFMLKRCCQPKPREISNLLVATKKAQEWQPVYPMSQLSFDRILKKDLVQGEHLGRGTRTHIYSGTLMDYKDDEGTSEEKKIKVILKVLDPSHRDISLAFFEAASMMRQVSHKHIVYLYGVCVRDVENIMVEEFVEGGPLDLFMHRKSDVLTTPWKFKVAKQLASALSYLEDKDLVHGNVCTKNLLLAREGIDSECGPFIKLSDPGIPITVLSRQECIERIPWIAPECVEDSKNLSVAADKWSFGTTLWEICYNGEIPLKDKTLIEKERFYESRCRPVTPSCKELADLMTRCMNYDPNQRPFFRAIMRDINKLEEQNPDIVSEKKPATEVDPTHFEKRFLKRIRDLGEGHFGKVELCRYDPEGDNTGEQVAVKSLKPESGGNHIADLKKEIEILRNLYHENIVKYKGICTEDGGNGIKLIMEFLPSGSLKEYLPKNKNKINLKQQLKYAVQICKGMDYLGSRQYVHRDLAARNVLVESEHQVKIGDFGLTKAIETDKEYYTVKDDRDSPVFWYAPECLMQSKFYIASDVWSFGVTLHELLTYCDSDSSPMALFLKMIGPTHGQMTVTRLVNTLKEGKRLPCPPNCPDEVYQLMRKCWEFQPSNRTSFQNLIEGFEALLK

[2] = target: Non-receptor tyrosine-protein kinase TYK2 (Homo sapiens, UniProt P29597); test: as §1
Sequence of Non-receptor tyrosine-protein kinase TYK2 (P29597 whole entry): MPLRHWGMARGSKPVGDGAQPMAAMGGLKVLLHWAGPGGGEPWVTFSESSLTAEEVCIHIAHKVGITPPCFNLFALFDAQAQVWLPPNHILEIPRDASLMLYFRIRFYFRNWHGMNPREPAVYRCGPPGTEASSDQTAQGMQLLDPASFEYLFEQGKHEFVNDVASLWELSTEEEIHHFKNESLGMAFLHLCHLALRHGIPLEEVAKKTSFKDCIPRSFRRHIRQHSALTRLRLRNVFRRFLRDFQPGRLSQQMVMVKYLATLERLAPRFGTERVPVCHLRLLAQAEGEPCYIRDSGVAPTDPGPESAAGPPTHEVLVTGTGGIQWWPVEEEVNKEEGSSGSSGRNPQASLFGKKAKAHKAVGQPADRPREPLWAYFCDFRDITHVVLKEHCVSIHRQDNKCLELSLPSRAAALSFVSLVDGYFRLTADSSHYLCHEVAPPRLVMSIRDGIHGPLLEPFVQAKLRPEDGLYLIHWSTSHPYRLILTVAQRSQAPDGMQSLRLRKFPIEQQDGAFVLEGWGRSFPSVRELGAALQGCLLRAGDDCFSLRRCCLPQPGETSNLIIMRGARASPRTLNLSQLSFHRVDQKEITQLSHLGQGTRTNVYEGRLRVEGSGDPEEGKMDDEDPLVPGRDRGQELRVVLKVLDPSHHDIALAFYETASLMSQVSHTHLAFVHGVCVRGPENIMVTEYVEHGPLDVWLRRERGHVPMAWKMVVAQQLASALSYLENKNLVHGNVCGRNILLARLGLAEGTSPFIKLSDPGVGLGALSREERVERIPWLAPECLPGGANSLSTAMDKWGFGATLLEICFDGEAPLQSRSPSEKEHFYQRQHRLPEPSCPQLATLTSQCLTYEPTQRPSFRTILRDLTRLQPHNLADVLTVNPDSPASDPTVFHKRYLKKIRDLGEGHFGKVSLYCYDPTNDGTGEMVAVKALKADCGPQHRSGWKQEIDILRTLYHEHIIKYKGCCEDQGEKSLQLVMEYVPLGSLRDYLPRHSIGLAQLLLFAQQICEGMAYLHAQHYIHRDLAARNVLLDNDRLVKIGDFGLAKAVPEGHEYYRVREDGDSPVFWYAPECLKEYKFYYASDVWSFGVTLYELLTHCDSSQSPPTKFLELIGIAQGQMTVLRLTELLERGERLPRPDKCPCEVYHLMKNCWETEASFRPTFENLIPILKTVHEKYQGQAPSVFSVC

[3] = target: T1, Tyrosine-protein kinase JAK3 (Homo sapiens, UniProt P52333); test: as §1
T1 sequence (P52333 whole entry): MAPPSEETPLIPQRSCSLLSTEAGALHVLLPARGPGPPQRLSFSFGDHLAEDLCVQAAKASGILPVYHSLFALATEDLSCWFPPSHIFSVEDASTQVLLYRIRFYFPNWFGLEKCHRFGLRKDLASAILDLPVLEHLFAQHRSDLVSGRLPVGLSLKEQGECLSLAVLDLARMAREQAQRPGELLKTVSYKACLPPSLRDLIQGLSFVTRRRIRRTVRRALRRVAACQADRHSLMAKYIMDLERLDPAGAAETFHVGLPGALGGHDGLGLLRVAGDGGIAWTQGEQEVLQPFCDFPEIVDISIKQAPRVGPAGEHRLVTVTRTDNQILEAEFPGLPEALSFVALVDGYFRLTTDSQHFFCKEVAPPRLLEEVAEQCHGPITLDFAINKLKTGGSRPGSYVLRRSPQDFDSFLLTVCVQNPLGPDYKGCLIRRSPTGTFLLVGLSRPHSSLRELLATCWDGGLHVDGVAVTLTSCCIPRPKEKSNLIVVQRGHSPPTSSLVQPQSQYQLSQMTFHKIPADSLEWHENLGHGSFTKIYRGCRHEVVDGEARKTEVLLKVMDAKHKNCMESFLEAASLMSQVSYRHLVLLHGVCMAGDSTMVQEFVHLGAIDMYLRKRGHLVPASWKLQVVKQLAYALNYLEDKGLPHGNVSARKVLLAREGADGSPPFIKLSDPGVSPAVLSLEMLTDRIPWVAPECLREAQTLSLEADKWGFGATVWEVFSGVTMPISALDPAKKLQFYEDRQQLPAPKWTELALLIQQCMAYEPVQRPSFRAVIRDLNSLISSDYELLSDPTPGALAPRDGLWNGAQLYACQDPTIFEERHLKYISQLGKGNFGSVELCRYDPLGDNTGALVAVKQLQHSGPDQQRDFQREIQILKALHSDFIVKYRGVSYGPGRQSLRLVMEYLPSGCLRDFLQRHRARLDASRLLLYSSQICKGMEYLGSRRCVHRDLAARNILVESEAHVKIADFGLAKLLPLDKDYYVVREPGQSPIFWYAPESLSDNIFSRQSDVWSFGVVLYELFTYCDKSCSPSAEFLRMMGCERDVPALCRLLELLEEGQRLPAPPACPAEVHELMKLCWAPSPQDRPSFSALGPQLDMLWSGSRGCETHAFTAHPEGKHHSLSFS

[4] = target: Tyrosine-protein kinase JAK2 (Homo sapiens, UniProt O60674); test: JAK Caliper Enzyme Assay at 1 mM ATP: Test article was solubilized in dimethyl sulfoxide (DMSO) to a stock concentration of 30 mM. An 11-point half log dilution series was created in DMSO with a top concentration of 600 μM. […] The compound plates were diluted 1 to 60 resulting in a top final assay compound concentration of 10 μM and a 2% DMSO concentration.Test article and assay controls were added to a 384-well plate. Reaction mixtures contained 20 mM HEPES, pH 7.4, 10 mM magnesium chloride, 0.01% bovine serum albumin (BSA), 0.0005% Tween 20, 1 mM ATP and 1 μM peptide substrate. […] Enzyme concentrations and incubation times were optimized for each new enzyme preps and were modified slightly over time to ensure 20%-30% phosphorylation. The assays were stopped with a final concentration of 10 mM EDTA, 0.1% Coating Reagent and 100 mM HEPES, pH=7.4. The assay plates were placed on a Caliper Life Science Lab Chip 3000 (LC3000) instrument, and each well was sampled using appropriate separation conditions to measure the unphosphorylated and phosphorylated peptide.
Sequence of Tyrosine-protein kinase JAK2 (O60674 whole entry): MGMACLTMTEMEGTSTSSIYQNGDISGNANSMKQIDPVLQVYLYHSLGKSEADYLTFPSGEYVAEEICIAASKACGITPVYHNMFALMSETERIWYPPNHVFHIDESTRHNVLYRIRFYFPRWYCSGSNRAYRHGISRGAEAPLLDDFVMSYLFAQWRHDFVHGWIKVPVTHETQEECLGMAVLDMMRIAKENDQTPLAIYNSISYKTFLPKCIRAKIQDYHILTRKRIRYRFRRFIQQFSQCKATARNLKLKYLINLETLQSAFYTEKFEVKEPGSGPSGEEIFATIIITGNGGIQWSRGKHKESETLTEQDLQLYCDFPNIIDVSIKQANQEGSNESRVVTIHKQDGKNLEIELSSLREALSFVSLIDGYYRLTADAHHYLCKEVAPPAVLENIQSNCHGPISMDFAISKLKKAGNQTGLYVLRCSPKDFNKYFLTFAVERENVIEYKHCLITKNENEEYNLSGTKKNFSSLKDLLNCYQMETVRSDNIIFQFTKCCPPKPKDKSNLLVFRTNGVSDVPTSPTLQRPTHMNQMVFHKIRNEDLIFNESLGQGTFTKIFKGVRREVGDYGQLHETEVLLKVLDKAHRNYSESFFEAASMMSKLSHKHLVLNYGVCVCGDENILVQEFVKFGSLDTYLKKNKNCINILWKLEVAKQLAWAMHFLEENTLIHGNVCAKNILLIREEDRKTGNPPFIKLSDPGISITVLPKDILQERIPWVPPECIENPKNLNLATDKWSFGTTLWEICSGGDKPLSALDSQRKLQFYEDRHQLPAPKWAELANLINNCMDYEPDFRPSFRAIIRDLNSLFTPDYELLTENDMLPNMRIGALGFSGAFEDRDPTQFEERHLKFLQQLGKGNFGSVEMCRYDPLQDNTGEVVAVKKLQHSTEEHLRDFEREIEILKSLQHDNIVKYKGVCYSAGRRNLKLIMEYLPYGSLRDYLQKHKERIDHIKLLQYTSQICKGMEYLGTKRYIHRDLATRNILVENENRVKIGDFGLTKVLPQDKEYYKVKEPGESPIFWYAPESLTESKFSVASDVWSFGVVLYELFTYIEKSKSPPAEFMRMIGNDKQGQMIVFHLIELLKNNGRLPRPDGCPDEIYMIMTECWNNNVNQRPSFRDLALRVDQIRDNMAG

IC50 [1] [nM] | IC50 [2] [nM] | IC50 [3] [nM] | IC50 [4] [nM] | SMILES
10.7 | 723 | 42.4 | 26.3 | CCc1cc(O)ccc1-c1cc2[nH]ncc2c(N2CCc3cc(-n4cnc(C)c4)ccc3C2)n1
10.1 | 289 | 56.2 | 25.9 | CCc1cc(O)ccc1-c1cc2[nH]ncc2c(N2CCc3cc(OCCOC)ccc3C2)n1
13.8 | 1540 | 194 | 52.4 | CCc1cc(O)ccc1-c1cc2[nH]ncc2c(N2CCc3ccc(OC)c(OC)c3C2)n1
39.4 | 561 | 111 | 46.5 | CCc1cc(O)ccc1-c1cc2[nH]ncc2c(N2CCc3c(Cl)cccc3C2)n1
9.7 | 302 | 40.8 | 16.9 | CCc1cc(O)ccc1-c1cc2[nH]ncc2c(N2CCc3cc(F)ccc3C2)n1
67.4 | 2730 | 340 | – | CCc1cc(O)ccc1-c1cc2[nH]ncc2c(N2CCc3cc(OC)c(OCc4ccccc4)cc3C2)n1

The remaining lines, values behind:

SMILES | IC50 [1] [nM] | IC50 [2] [nM] | IC50 [3] [nM] | IC50 [4] [nM]
CC(=O)N1CCc2[nH]c(-c3n[nH]c4nc(-c5cc(F)c(O)cc5CC(F)(F)F)nc(NCc5cc(O)ccc5N(C)S(C)(=O)=O)c34)nc2C1 | 3.2 | – | – | –
CCc1cc(O)ccc1-c1cc2[nH]ncc2c(N2CCc3cccc(OC)c3C2)n1 | – | 478 | 78.1 | 25.1
CSCCNc1nc(-c2cc(F)c(O)cc2CC(F)(F)F)cc2[nH]nc(-c3nc4c([nH]3)CCN(Cc3ccccc3)C4)c12 | 50 | 172 | 589 | 196
CCCCN(c1ccccc1CN(C)c1nc(-c2cc(F)c(O)cc2CC)cc2[nH]ncc12)S(C)(=O)=O | 19.5 | – | 61.6 | 43.2
CCc1cc(O)c(F)cc1-c1cc2[nH]ncc2c(NCc2ccccc2N(C)S(=O)(=O)CC)n1 | 0.7 | 8.4 | 17.3 | –
CN(c1ccc(O)cc1CNc1nc(-c2cc(F)c(O)cc2CC(F)(F)F)nc2[nH]nc(C(N)=O)c12)S(=O)(=O)c1ccccc1 | – | – | – | 123
CN(c1ccc(F)cc1CNc1nc(-c2cc(F)c(O)cc2CC(F)(F)F)cc2[nH]nc(C(N)=O)c12)S(C)(=O)=O | 6.6 | 127 | 140 | 41.1
